Measured values as given in PubChem BioAssay (NCI).
Several values for one entry are separate records, joined by “and”; a condition that tells them apart may be missing. Identical values can stand only once.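 How tested: cells in 96-well plates exposed to compound for 48 hours at five concentrations. GI50 = concentration required for 50% inhibition of growth. TGI denotes the concentration required for complete inhibition of growth.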

Columns and labels:
Test in all cases: NCI anticancer screen, dose series, 48 h
[1] = test system: DMS 273 small cell lung
[2] = test system: SNB-78 CNS
[3] = test system: DLD-1 colon
[4] = test system: KM20L2 colon
[5] = test system: M19-MEL melanoma
[6] = test system: PC-3 prostate
[7] = test system: T-47D breast
[8] = test system: MDA-N
[9] = test system: XF 498 CNS

Compound | TGI [2] | TGI [3] | TGI [5] | TGI [6] | TGI [7] | GI50 [6] | GI50 [7] | other results
Cc1ccc(/C=C/C(=O)c2sc(-c3cccnc3)nc2C)cc1 | > 100 µM | > 100 µM | > 100 µM | – | – | – | – | TGI [1]: > 100 µM; TGI [4]: > 100 µM
Cc1cccc(Cl)c1NC(=O)/C=C/c1ccccc1 | – | – | – | > 100 µM | > 100 µM | – | – | TGI [8]: > 100 µM
O=C(Nc1cc[c]([Sb](=[O])([OH])[OH])cc1)c1ccccc1 | – | – | – | > 100 µM | > 100 µM | > 100 µM | > 100 µM | –
Cc1ccc(-c2nc(N)nc3c2nnn3Cc2cccc(CO[C@H]3CCOC3)n2)o1 | – | – | – | > 100 µM | – | > 100 µM | – | –
COc1cc(C(c2cc3c(cc2O)OCO3)N2CCCCC2)cc(OC)c1OC (stereo not given) | – | – | – | 30.6 µM | 47.8 µM | – | – | TGI [8]: 19.8 µM
NC(=N\N=C/c1cccc([N+](=O)[O-])c1)/C(N)=N\N=C/c1cccc([N+](=O)[O-])c1 | – | – | – | > 100 µM | > 100 µM | > 100 µM | > 100 µM | –
Cc1nc2cc(N)c(F)cc2[nH]1 | > 100 µM | > 100 µM | > 100 µM | – | – | – | – | TGI [1]: > 100 µM; TGI [9]: > 100 µM
CCn1c(O)c(C=N)c(=O)n(CC)c1=O | > 100 µM | > 100 µM | > 100 µM | – | – | – | – | TGI [1]: > 100 µM; TGI [4]: > 100 µM
COc1ccc(-c2nc3ncccn3c2/C=C/C(=O)c2cc(OC)c(OC)c(OC)c2)cc1 | – | – | – | 53.2 µM | 14.9 µM | 4.32 µM | 2.53 µM | –
CC1=C2C[C@H]3[C@@H](CC=C4C[C@@H](O)CC[C@@]43C)[C@@H]2CC[C@]12O[C@@H]1C[C@H](C)CN[C@H]1[C@H]2C | – | – | – | 50 µM and 59.6 µM | 32.8 µM and 34.9 µM | 22.1 µM and 20.2 µM | 13.3 µM and 16.7 µM | –
Cc1cc(N2CCCC2)nc(NC2CCCC(Nc3ccnc4cc(Cl)ccc34)C2)n1 (stereo not given) | – | – | – | – | 4.83 µM | – | 1.71 µM | –
C[C@@H]1N=C(c2ccc(Br)cc2)Nc2nc3ccccn3c2C1=O | – | – | – | > 100 µM | > 100 µM | 5.7 µM | 4.62 µM | –
NC(=O)c1ccc2c(-c3ccnc(NCCCO)n3)c(-c3ccc(F)cc3)nn2c1 | – | – | – | > 25 µM | > 25 µM | > 25 µM | > 25 µM | –
c1cc(OCCN2CCCCC2)ccc1CNc1ccc2nc(CCC3CCCCC3)[nH]c2c1 | – | – | – | 3.71 µM | 4.52 µM | 1.6 µM | 1.71 µM | –
CN(C)CC/C(=N\Nc1ccccc1)c1ccccc1 | 89.7 µM | > 100 µM | 77.9 µM | – | – | – | – | TGI [9]: 23.4 µM
O=C1NC2CCC(C2)C1c1ccccc1 (stereo not given) | > 100 µM | > 100 µM | > 100 µM | – | – | – | – | TGI [1]: > 100 µM
O=C([CH-]C(=O)c1ccccc1)c1ccccc1.O=C([CH-]C(=O)c1ccccc1)c1ccccc1.O=C([CH-]C(=O)c1ccccc1)c1ccccc1.[OH3+].[Y+3] | – | – | – | – | – | – | – | GI50 [4]: 5.92 µM
O=P([O-])(O)OP(=O)([O-])O.[NH-][C@@H]1CCCC[C@H]1[NH-].[Pt+4] | – | – | – | > 100 µM | > 100 µM and 39.5 µM | > 100 µM and 20.3 µM | 18.4 µM and 4.82 µM | –

Compound | TGI [2] | TGI [3] | TGI [5] | TGI [6] | TGI [7] | GI50 [6] | GI50 [7] | other results
COC(=O)c1c2c(c(C)[n+]([O-])c1C)C(=O)C=C(NCc1ccc(OC)cc1)C2=O | – | – | – | 6.55 µM | 4.18 µM | 1.02 µM | 0.994 µM | –
CCCN1CCN(c2ccc3nc(-c4ccc5nc(-c6cc(OC)ccc6OC)[nH]c5c4)[nH]c3c2)CC1 | – | – | – | 4.04 µM | 54.1 µM | 1.75 µM | 21.6 µM | –
COc1c(Cl)c2c(c(OC)c1OC)-c1ccc(SC)c(=O)cc1[C@@H](NC(=O)OCC(F)(F)F)CC2 | – | – | – | > 72.8 µM | – | < 0.01 µM | – | –
CCCn1c(SCC)c2cc3cc4ccccc4cc3cc2c1-c1nc(F)nc(F)n1 | > 100 µM | – | > 100 µM | – | – | – | – | TGI [1]: > 100 µM; TGI [9]: > 100 µM; TGI [4]: > 100 µM
Cn1nc(-c2ccccc2)nc1[N+](=O)[O-] | – | – | – | > 10 µM | > 10 µM | – | – | TGI [8]: > 10 µM
CN(C)C1CCN(C(=O)c2ccc(NC(=O)Nc3ccc(-c4nc(N5CCOCC5)nc(N5CCOCC5)n4)cc3)cc2)CC1 | – | – | – | 0.407 µM and 0.216 µM and 1.06 µM | 0.0345 µM and 0.0176 µM and 0.0884 µM | < 0.01 µM and 0.0108 µM and 0.0309 µM | < 0.01 µM and 0.00386 µM and 0.0056 µM | –
O=C1c2ccccc2C2(O)NC(=S)N(c3ccccc3)C12O (stereo not given) | > 100 µM | > 100 µM | > 100 µM | – | – | – | – | TGI [9]: > 100 µM; TGI [4]: > 100 µM
O=c1ccnc2c1ccc1[nH]cccc12 | > 100 µM | > 100 µM | > 100 µM | – | – | – | – | TGI [1]: > 100 µM; TGI [4]: > 100 µM
Cc1ccc(NC(=O)CCC/C(CC(=O)c2ccc(Br)cc2)=N/NC(=O)CC#N)cc1 | > 100 µM | > 100 µM | > 100 µM | – | – | – | – | TGI [4]: > 100 µM
CC(=O)/C(=C\C1=CCCO1)C(=O)Nc1ccccc1C | > 100 µM | > 100 µM | > 100 µM | – | – | – | – | TGI [9]: > 100 µM
COc1ccc2c(CN3CCC[C@H]3C(=O)O)cc3cc4c(cc3c2c1)OCO4 | – | – | – | – | > 100 µM | – | 20 µM | –
CC(=O)Nc1c(C)ccc2c1C(=O)c1ccccc1C2=O | > 100 µM | > 100 µM | > 100 µM | – | – | – | – | TGI [1]: > 100 µM
CCOc1ccc(Nc2nc(-c3ccc4c(c3)NC(=O)CO4)cs2)cc1 | – | – | – | 32.8 µM | 10.4 µM | 3.04 µM | 1.94 µM | –
CCOC(=O)C1=C(Nc2ccc(Cl)cc2Cl)OC/C1=N\NS(=O)(=O)c1ccc(C)cc1 | > 100 µM | > 100 µM | > 100 µM | – | – | – | – | TGI [1]: > 100 µM; TGI [4]: > 100 µM
O=C1c2cc([N+](=O)[O-])ccc2-c2cccc(F)c21 | – | – | – | > 100 µM | 66.1 µM | – | – | TGI [8]: > 100 µM
CC1(C)CCC[C@@]2(C)C1CC[C@H]1CC(O)C3(C)CCC12C3 (stereo not given in full) | 37 µM | 30.9 µM | 38.2 µM | – | – | – | – | TGI [9]: 31.7 µM; TGI [4]: 33 µM
COC(=O)C(=O)C(C(=O)C(=O)Nc1ccccc1C(C)=O)c1nc2ccc(C(=O)c3ccccc3)cc2[nH]c1=O (stereo not given) | – | – | – | > 100 µM | > 100 µM | – | – | TGI [8]: > 100 µM
CC/C(=C(/CC)c1ccc(O)cc1)c1ccc([O-])cc1.CC/C(=C(/CC)c1ccc(O)cc1)c1ccc([O-])cc1.O=C([CH-]C(=O)c1ccccc1)c1ccccc1.O=C([CH-]C(=O)c1ccccc1)c1ccccc1.[Ti+4] | > 100 µM | 28.9 µM | – | – | – | – | – | GI50 [1]: 16.3 µM; TGI [1]: > 100 µM; GI50 [2]: 27.1 µM; GI50 [3]: 10.8 µM; GI50 [4]: 19.3 µM; TGI [4]: 41.3 µM
